The compounds below were run against T1, human TRPA1 (Homo sapiens, UniProt O75762) (assay: Cell-based functional intracellular calcium ([Ca2+]i) assay, Fluo-4/Fluo-8, FlexStation, challenge with reference TRPA1 agonist (FFA, AITC or 4-HNE)). Details: not given.
T1 construct: expressed in transfected cells
Experimental: A stable HEK293 cell line that expresses human TRPA1 in an inducible manner was employed in this assay. […] The expression of TRPA1 was induced by including 1 μg/ml doxycycline in the culture medium. For the induced cells, ruthenium red (5 μM) was also added to minimize the constitutive TRPA1 channel activity and cells were used 14-18 hrs after induction. To measure [Ca^2+]i changes, cells were seeded in wells of 96-well plates at ˜100,000 cells/well and grown for 14-18 hrs to reach confluency. To prevent cell loss from subsequent washing, the wells were treated with 20 μg/ml polyornithine (MW>30,000, Sigma, St Louis, Mo.) for >15 min and rinsed once with Hank's balanced salt solution without Mg^2+ and Ca^2+. […] In some experiments, Fluo-8-AM was used instead of Fluo-4-AM as the calcium-sensitive fluorescent probe. Probenecid (2 mM) was included in all solutions to prevent the leakage of Fluo-4 or Fluo-8 from the cells. At the end of the incubation, cells were washed three times with ECS and placed in 80 μL of the same solution. Fluorescence changes were measured using a fluid handling integrated fluorescence plate reader, FlexStation (Molecular Devices, Sunnyvale, Calif.). Stock solutions of test compounds were initially solubilized in 100% DMSO and then serially diluted to achieve the desired final concentration. […] Drugs were diluted into ECS at 2× or 3× the desired final concentrations and delivered to the sample plate by an integrated robotic 8-channel pipettor at preprogrammed time points. […] Experiments were performed at 20-25° C. For certain experiments, 0.1% BSA was included with the cells and test compounds.
The kinetic data obtained at each test concentration of drug represents a series of fluorescent intensities as a function of time.
Using a sequential addition protocol, test compounds were initially applied to the cells loaded with Fluo-4 or Fluo-8 and fluorescence changes in each well monitored for 2.5 min. The plate was read again in a kinetic mode after a 15-30 min incubation with the test compounds after obtaining baseline values (about 30 s) and subsequent addition of challenge with a reference TRPA1 agonist. Reference TRPA1 agonists in testing each compound included at least one of flufenamic acid (FFA), allyl isothiocyanate (AITC) and 4-hydroxynonenal (4-HNE).
Antagonist activity can be expressed in terms of IC50 with respect to TRPA1 and agonist activity can be expressed in terms of EC50 with respect to TRPA1.

T1 sequence (O75762 whole entry): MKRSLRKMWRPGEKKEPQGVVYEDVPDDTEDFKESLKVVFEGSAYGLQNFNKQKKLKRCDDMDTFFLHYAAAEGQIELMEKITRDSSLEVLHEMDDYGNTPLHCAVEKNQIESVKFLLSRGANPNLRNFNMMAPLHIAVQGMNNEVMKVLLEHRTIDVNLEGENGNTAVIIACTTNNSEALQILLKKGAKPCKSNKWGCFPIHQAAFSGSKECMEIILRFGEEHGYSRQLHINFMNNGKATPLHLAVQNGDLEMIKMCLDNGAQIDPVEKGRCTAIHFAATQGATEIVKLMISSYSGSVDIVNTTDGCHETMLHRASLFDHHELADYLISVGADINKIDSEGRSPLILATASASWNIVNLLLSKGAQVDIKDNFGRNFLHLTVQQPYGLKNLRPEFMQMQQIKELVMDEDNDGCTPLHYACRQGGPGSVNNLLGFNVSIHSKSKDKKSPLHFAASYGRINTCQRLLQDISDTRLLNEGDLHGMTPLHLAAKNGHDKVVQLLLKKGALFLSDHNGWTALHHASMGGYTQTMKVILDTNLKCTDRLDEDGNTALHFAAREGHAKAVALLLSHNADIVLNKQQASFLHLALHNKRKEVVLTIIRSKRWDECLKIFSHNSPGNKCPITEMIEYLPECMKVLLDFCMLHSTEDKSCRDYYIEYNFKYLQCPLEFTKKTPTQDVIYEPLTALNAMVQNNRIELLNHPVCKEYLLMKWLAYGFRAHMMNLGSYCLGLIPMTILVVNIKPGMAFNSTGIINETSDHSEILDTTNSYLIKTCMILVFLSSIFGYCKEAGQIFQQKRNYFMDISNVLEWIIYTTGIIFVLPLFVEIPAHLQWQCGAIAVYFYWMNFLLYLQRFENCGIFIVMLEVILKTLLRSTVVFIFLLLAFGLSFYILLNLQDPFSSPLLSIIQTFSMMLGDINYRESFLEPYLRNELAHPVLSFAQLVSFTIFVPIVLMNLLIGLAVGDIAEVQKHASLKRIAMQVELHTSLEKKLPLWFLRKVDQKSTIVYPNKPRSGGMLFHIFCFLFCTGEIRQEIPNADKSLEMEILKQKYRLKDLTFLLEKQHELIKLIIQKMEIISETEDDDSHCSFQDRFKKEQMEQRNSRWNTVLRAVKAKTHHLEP

SMILES	IC50 [µM]
O=C(c1cc(-c2ccncc2)n(-c2ccc(F)c(F)c2)n1)N1CCC2(CC1)OCCO2 [Compound 151]	> 25
CC1COC2(CCN(C(=O)c3cc(-c4ccncc4)n(-c4ccc(C(F)(F)F)cc4)n3)CC2)O1 (stereo not drawn) [Compound 71]	> 25
O=C(c1cc(-c2ccncc2)n(-c2ccc(C(F)(F)F)nc2)n1)N1CCC(N2C(=O)Cc3ccccc32)CC1 [Compound 119]	> 25
CCCC1COC2(CCN(C(=O)c3cc(-c4ccncc4)n(-c4ccc(C(F)(F)F)cc4)n3)CC2)O1 (stereo not drawn) [Compound 74]	> 25
O=C(c1cc(-c2ccncc2)n(-c2cc(F)c(F)c(F)c2)n1)N1CCC2(CC1)OCCO2 [Compound 142]	> 25

Same assay, conditions: HEK293 cells expressing human TRPA1; IC50 class after addition of reference TRPA1 agonist (FFA, AITC or 4-HNE); read-out: human TRPA1-HEK Activity

SMILES	IC50 [µM]
O=C(Nc1ccc2c(c1)COC2=O)c1cc(-c2ccncc2)n(-c2ccc(F)c(F)c2)n1 [Compound 92]	> 25
O=C(c1cc(-c2cccnc2)n(-c2cc(F)c(F)c(F)c2)n1)N1CCC2(CC1)C(=O)NCN2c1ccc(Br)cc1 [Compound 201]	0.001 to 5
O=C(c1cc(-c2ccncc2)n(-c2ccc(C(F)(F)F)nc2)n1)N1CCC(N2C(=O)OC[C@H]2c2ccccc2)CC1 [Compound 127]	> 25
O=C(c1cc(-c2cccnc2)n(-c2ccc(C(F)(F)F)c(F)c2)n1)N1CCC2(CC1)C(=O)NCN2c1ccc(F)c(F)c1 [Compound 181]	0.001 to 5
N#Cc1ccc(-n2nc(C(=O)N3CCC(n4c(=O)[nH]c5ccc(F)c(F)c54)CC3)cc2-c2cccnc2)c(C(F)(F)F)c1 [Compound 325]	0.001 to 5
O=C(c1cc(-c2ccncc2)n(-c2ccc(F)c(F)c2)n1)N1CCC(c2nc3ccccc3o2)CC1 [Compound 87]	> 25
O=C(c1cc(-c2cccnc2)n(-c2ccc(C(F)(F)F)cc2)n1)N1CCC2(CC1)C(=O)NCN2c1ccc(F)cc1 [Compound 49]	0.001 to 5
O=C(c1cc(-c2ccncc2)n(-c2ccc(C(F)(F)F)c(F)c2)n1)N1CCC(n2c(=O)[nH]c3ccccc32)CC1 [Compound 162]	5 to 25
O=C(Nc1ccc2c(c1)OC(F)(F)O2)c1cc(-c2ccncc2)n(-c2cnccn2)n1 [Compound 130]	5 to 25
N#Cc1ccc2[nH]c(=O)n(C3CCN(C(=O)c4cc(-c5cccnc5)n(-c5ccc(C#N)c(F)c5)n4)CC3)c2c1 [Compound 328]	0.001 to 5
O=C(c1cc(-c2ccncc2)n(-c2ccc(C(F)(F)F)cc2)n1)N1CCC(n2c(=O)[nH]c3ccc(F)c(F)c32)CC1 [Compound 177]	0.001 to 5
Cc1cc(N2CNC(=O)C23CCN(C(=O)c2cc(-c4cccnc4)n(-c4cc(F)c(F)c(F)c4)n2)CC3)cc(C)c1F [Compound 204]	0.001 to 5
O=C(c1cc(-c2cccnc2)n(-c2cc(F)c(C(F)(F)F)cc2F)n1)N1CCC(n2c(=O)[nH]c3ccc(F)c(F)c32)CC1 [Compound 223]	0.001 to 5
Cc1cc(OC(F)(F)F)ccc1-n1nc(C(=O)N2CCC(n3c(=O)[nH]c4ccc(F)c(F)c43)CC2)cc1-c1cccnc1 [Compound 227]	0.001 to 5
N#Cc1ccc2[nH]c(=O)n(C3CCN(C(=O)c4cc(-c5cccnc5)n(-c5ccc(F)c(C(F)(F)F)c5)n4)CC3)c2c1 [Compound 240]	0.001 to 5
O=C1Nc2ccc(F)c(F)c2C2(CCN(C(=O)c3cc(-c4cccnc4)n(-c4ccc(F)c(C(F)(F)F)c4)n3)CC2)O1 [Compound 272]	0.001 to 5
O=C(c1cc(-c2ccncc2)n(-c2ccc(C(F)(F)F)cc2)n1)N1CCN2C(=O)OC[C@@H]2C1 [Compound 72]	5 to 25
O=C(c1cc(-c2ccnnc2)n(-c2ccc(C(F)(F)F)c(F)c2)n1)N1CCC2(CC1)C(=O)NCN2c1ccc(F)cc1 [Compound 320, 8-(1-(3-fluoro-4-(trifluoromethyl)phenyl)-5-(pyridazin-4-yl)-1H-pyrazole-3-carbonyl)-1-(4-fluorophenyl)-1,3,8-triazaspiro [4.5]decan-4-one]	0.001 to 5
N#Cc1ccc(-n2nc(C(=O)N3CCC(n4c(=O)[nH]c5ccc(F)c(F)c54)CC3)cc2-c2cccnc2)cc1C(F)(F)F [Compound 284]	0.001 to 5
